Assay results reported in article PMC12188386, “Selective CBP/EP300 Bromodomain Inhibitors: Novel Epigenetic Tools to Counter TNF-α-Driven Inflammation” (JACS Au, 2025).

Assays:
Assay in all cases: NCI-60 one-dose screen
Type in all cases: cell-based, human
NCI/ADR-RES = settings: 10 µM, 48 h, Ovarian Cancer
Description: (§1) Adapted from NCI-60 Screening Methodology, one-dose screen:20 Briefly, human tumor cell lines, grown in RPMI 1640 containing 5% FBS and 2 mM L-glutamine, were plated in 96 well plates at densities ranging from 5,000 to 40,000 cells/well 24 h prior to addition of test compounds (here 10 μM 2). 400x solutions of test compounds were prepared in DMSO, then diluted to 2x in medium supplemented with 50 μg/mL gentamicin. 100 μl of this 2x stock was added to cells previously plated in 100 μl medium, resulting in the desired final compound concentration. Cells were fixed in situ with cold TCA: untreated cells at the time of compound addition (Tz) and treated cells 48 h after addition of compound (Ti). Cells were washed, then su f rh damine s uti n μ at . w/v in acetic acid was added to each well and incubated for 10 minutes at room temperature. After washing again, the plates were air dried and bound stain solubilized with 10 mM Trizma base before absorbance was […]
(§2) Percentage growth (%Growth) was calculated as follows:
(§3) when Ti ≥ Tz, %Growth = Ti − Tz x 100 where Ti = absorbance from compound treated cells, Tz = absorbance from untreated cells at time zero, and C = absorbance from control (DMSO) treated cells. […]

SF-295 = settings: 10 µM, 48 h, CNS Cancer
Description: as §1, §2, §3

T-47D = settings: 10 µM, 48 h, Breast Cancer
Description: as §1, §2, §3

CAKI-1 = settings: 10 µM, 48 h, Renal Cancer
Description: as §1, §2, §3

A498 = settings: 10 µM, 48 h, Renal Cancer
Description: as §1, §2, §3

SN12C = settings: 10 µM, 48 h, Renal Cancer
Description: as §1, §2, §3

NCI-H322M = settings: 10 µM, 48 h, Non-Small Cell Lung Cancer
Description: as §1, §2, §3

OVCAR-5 = settings: 10 µM, 48 h, Ovarian Cancer
Description: as §1, §2, §3

MDA-MB-468 = settings: 10 µM, 48 h, Breast Cancer, values <0 indicate lethality
Description: as §1, §2, §3

SNB-75 = settings: 10 µM, 48 h, CNS Cancer
Description: as §1, §2, §3

HOP-92 = settings: 10 µM, 48 h, Non-Small Cell Lung Cancer
Description: as §1, §2, §3

KM12 = settings: 10 µM, 48 h, Colon Cancer
Description: as §1, §2, §3

MDA-MB-231/ATCC = settings: 10 µM, 48 h, Breast Cancer
Description: as §1, §2, §3

SW-620 = settings: 10 µM, 48 h, Colon Cancer
Description: as §1, §2, §3

UO-31 = settings: 10 µM, 48 h, Renal Cancer
Description: as §1, §2, §3

In the case of `Cc1cc2c(NC(=O)c3cc(NC(=O)c4ccco4)cc(-c4ccn(C)n4)c3)cccc2nn1` [Compound 2], the “%Growth” value (NCI/ADR-RES) is reported as 91%, the “%Growth” value (SF-295) is reported as 42% and the “%Growth” value (T-47D) is reported as 44%. The “%Growth” value (CAKI-1) was 22%, the “%Growth” value (A498) was 91% and the “%Growth” value (SN12C) was 63%. For the same compound, the “%Growth” value (NCI-H322M) was 86%, the “%Growth” value (OVCAR-5) was 89% and the “%Growth” value (MDA-MB-468) was -19%. The “%Growth” value (SNB-75) was 27%, the “%Growth” value (HOP-92) was 63% and the “%Growth” value (KM12) was 28%. The “%Growth” value (MDA-MB-231/ATCC) was 57%, the “%Growth” value (SW-620) was 52% and the “%Growth” value (UO-31) was 43%.
